Test results as given in patent US11814367B2, “Inhibitors of glycogen synthase 1 (GYS1) and methods of use thereof” (Maze Therapeutics, Inc., priority 2021, dated 2023).

Key:
[1] = system: hGYS1 enzyme / glycogen synthesis in HeLa cells; assay: GYS1 cell based assay (glycogen synthesis, Glucose-glo); set-up: species or system human; conditions: Homo sapiens, HeLa, 24 h, 24 h incubation, 20 mM glucose, geometric mean of at least 2 runs
Procedure, shortened: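 HeLa cells starved 24 h in medium containing only 1× Glutamax were plated onto compound in medium with 20 mM glucose (1% DMSO final) for 24 h, 37 °C, 5% CO2. Acid lysates were Tris-quenched, glucoamylase-digested (pH 5.3, 1 h, 37 °C) and read by Glucose-glo luminescence. IC50 came from Hill fits, as geometric mean of ≥2 runs.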

[2] = target: hGYS2 enzyme (recombinant hGYS2/GN1 protein) (Homo sapiens (Human), UniProt P54840); assay: GYS2 coupled enzyme assay (PK/LDH); assay type: biochemical; conditions: geometric mean of at least 2 assay runs on separate days, read-out: Avg_IC50
hGYS2 enzyme (recombinant hGYS2/GN1 protein), sequence (P54840 whole entry): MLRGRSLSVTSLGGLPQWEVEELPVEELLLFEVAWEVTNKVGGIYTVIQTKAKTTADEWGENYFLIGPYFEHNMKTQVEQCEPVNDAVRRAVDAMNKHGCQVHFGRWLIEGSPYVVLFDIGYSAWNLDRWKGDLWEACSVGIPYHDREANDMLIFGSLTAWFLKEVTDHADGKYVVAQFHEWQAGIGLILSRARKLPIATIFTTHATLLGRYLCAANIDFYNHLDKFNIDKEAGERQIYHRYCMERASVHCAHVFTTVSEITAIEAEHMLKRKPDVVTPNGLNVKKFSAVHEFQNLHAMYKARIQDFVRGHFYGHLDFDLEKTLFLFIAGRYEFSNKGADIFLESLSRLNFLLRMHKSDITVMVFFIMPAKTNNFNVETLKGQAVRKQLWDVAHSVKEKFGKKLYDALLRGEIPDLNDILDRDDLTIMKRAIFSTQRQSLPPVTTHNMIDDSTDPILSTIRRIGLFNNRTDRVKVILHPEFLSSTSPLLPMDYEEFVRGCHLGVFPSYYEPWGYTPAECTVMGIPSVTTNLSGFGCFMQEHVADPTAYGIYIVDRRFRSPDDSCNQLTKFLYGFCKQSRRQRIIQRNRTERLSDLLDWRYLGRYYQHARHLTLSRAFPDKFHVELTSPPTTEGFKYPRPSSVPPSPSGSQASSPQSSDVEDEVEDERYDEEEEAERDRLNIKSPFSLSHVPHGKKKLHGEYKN
hGYS2 enzyme (recombinant hGYS2/GN1 protein), sequence (P46976 whole entry partner): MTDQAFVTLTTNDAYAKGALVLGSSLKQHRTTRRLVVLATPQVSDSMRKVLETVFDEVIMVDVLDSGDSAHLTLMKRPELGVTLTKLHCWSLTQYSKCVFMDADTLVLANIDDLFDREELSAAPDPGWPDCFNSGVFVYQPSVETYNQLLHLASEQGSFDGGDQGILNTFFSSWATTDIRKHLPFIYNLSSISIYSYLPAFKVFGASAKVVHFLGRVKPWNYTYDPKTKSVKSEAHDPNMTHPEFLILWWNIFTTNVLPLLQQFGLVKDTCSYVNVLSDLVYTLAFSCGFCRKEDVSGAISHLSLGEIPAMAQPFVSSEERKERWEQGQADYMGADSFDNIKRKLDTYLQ
Procedure, shortened: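 Read-out: NADH loss at 340 nm, read each minute for 10 min, slope normalized to controls, duplicate % inhibition fit to Hill (0–100). Enzyme: 200 nM hGYS2/GN1; substrate 2 mM UDP-glucose plus 0.2% glycogen and 2 mM G6P; pH 7.5 Tris, 2.5% DMSO.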

[3] = target: hGYS1 enzyme (recombinant hGYS1/GN1 protein) (Homo sapiens (Human), UniProt P13807); assay: GYS1 coupled enzyme assay (PK/LDH); assay type: biochemical; conditions: hGYS1/GN1 50 nM, UDP-Glucose 0.8 mM, G6P 1 mM; geometric mean of at least 2 runs
hGYS1 enzyme (recombinant hGYS1/GN1 protein), sequence (P13807 whole entry): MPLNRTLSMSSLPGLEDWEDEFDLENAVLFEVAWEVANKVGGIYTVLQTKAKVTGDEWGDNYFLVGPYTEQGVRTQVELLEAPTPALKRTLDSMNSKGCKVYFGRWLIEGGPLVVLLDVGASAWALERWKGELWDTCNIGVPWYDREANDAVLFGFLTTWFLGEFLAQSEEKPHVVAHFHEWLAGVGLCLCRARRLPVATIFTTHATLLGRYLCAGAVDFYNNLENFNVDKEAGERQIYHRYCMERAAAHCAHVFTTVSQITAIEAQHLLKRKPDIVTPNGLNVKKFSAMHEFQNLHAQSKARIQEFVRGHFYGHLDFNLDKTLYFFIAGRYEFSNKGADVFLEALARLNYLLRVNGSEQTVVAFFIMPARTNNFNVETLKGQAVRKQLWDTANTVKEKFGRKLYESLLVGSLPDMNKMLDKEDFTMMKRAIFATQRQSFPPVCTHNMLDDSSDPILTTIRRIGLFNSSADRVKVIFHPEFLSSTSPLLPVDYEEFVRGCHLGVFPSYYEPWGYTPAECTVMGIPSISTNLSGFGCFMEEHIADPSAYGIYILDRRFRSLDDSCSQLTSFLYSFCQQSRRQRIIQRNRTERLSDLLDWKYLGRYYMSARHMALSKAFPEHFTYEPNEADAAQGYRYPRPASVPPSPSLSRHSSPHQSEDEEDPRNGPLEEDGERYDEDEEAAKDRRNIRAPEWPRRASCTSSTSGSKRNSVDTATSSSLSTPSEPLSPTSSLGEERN
hGYS1 enzyme (recombinant hGYS1/GN1 protein), sequence (P46976 whole entry partner): as the sequence (P46976 whole entry partner) above

Compound | IC50 [1] [nM] | IC50 [2] [nM] | IC50 [3] [nM]
O=C(N[C@@H](c1ccccc1)c1ccc(C2CC2)c(F)c1)[C@@H]1C[C@@H](F)CN1C(=O)CNc1cnccn1 [Compound 471, (2S,4R)-N-[(S)-(4-cyclopropyl-3-fluorophenyl)(phenyl)methyl]-4-fluoro-1-{2-[(pyrazin-2-yl)amino]acetyl}pyrrolidine-2-carboxamide] | 700 | > 100000 | 29
Cc1nccc(N(C)CC(=O)N2C[C@H](F)C[C@H]2C(=O)N[C@@H](c2ccccc2)c2ccc(C3CC3)c(F)c2)n1 [Compound 476, (2S,4R)-N-[(S)-(4-cyclopropyl-3-fluorophenyl)(phenyl)methyl]-4-fluoro-1-{2-[methyl(2-methylpyrimidin-4-yl)amino]acetyl} pyrrolidine-2-carboxamide] | 900 | > 100000 | 39
O=C(N[C@@H](c1ccccc1)c1ccc(C2CC2)c(F)c1)[C@@H]1C[C@@H](F)CN1C(=O)Cc1ccc2ncnn2c1 [Compound 478, (2S,4R)-N-[(S)-(4-cyclopropyl-3-fluorophenyl)(phenyl)methyl]-4-fluoro-1-(2-{[1,2,4]triazolo[1,5-a]pyridin-6-yl}acetyl) pyrrolidine-2-carboxamide] | 1190 | 68200 | 69
O=C(N[C@@H](c1ccccc1)c1ccc(C2CC2)c(F)c1)[C@@H]1C[C@@H](F)CN1C(=O)Cc1cnc2ccccn12 [Compound 479, (2S,4R)-N-[(S)-(4-cyclopropyl-3-fluorophenyl)(phenyl)methyl]-4-fluoro-1-(2-{imidazo[1,2-a]pyridin-3-yl}acetyl)pyrrolidine-2-carboxamide] | 1430 | > 100000 | 55
Cc1ccc2cc(CC(=O)N3C[C@H](F)C[C@H]3C(=O)N[C@@H](c3ccccc3)c3ccc(C4CC4)c(F)c3)ccc2n1 [Compound 480, (2S,4R)-N-[(S)-(4-cyclopropyl-3-fluorophenyl)(phenyl)methyl]-4-fluoro-1-[2-(2-methylquinolin-6-yl)acetyl]pyrrolidine-2-carboxamide] | 1120 | > 100000 | 79
CN(C)c1cnn(CC(=O)N2C[C@H](F)C[C@H]2C(=O)N[C@@H](c2ccccc2)c2ccc(C3CC3)c(F)c2)n1 [Compound 483, (2S,4R)-N-[(S)-(4-cyclopropyl-3-fluorophenyl)(phenyl)methyl]-1-{2-[4-(dimethylamino)-2H-1,2,3-triazol-2-yl]acetyl}-4-fluoropyrrolidine-2-carboxamide] | 720 | > 100000 | 49
CN1CCN(C(=O)NCC(=O)N2C[C@H](F)C[C@H]2C(=O)N[C@@H](c2ccccc2)c2ccc(C3CC3)c(F)c2)CC1 [Compound 486, N-{2-[(2S,4R)-2-{[(S)-(4-cyclopropyl-3-fluorophenyl)(phenyl)methyl]carbamoyl}-4-fluoropyrrolidin-1-yl]-2-oxoethyl}-4-methylpiperazine-1-carboxamide] | 1020 | > 100000 | 41
COCCN1CCN(C(=O)NCC(=O)N2C[C@H](F)C[C@H]2C(=O)N[C@@H](c2ccccc2)c2ccc(C3CC3)c(F)c2)CC1 [Compound 488, N-{2-[(2S,4R)-2-{[(S)-(4-cyclopropyl-3-fluorophenyl)(phenyl)methyl]carbamoyl}-4-fluoropyrrolidin-1-yl]-2-oxoethyl}-4-(2-methoxyethyl) piperazine-1-carboxamide] | 880 | > 100000 | 31
O=C(N[C@@H](c1ccccc1)c1ccc(C2CC2)c(F)c1)[C@@H]1C[C@@H](F)CN1C(=O)Cc1n[nH]c(=O)[nH]1 [Compound 491, (2S,4R)-N-[(S)-(4-cyclopropyl-3-fluorophenyl)(phenyl)methyl]-4-fluoro-1-[2-(5-oxo-4,5-dihydro-1H-1,2,4-triazol-3-yl)acetyl]pyrrolidine-2-carboxamide] | 5550 | > 100000 | 93

Results, then the molecule that gave them:

IC50 [1] [nM] | IC50 [2] [nM] | IC50 [3] [nM] | Compound
960 | > 100000 | 82 | CCn1ncc(NCC(=O)N2C[C@H](F)C[C@H]2C(=O)N[C@@H](c2ccccc2)c2ccc(C3CC3)c(F)c2)n1 [Compound 470, (2S,4R)-N-[(S)-(4-cyclopropyl-3-fluorophenyl)(phenyl)methyl]-1-{2-[(2-ethyl-2H-1,2,3-triazol-4-yl)amino]acetyl}-4-fluoropyrrolidine-2-carboxamide]
540 | > 100000 | 22 | Cc1nccc(NCC(=O)N2C[C@H](F)C[C@H]2C(=O)N[C@@H](c2ccccc2)c2ccc(C3CC3)c(F)c2)n1 [Compound 472, (2S,4R)-N-[(S)-(4-cyclopropyl-3-fluorophenyl)(phenyl)methyl]-4-fluoro-1-{2-[(2-methylpyrimidin-4-yl)amino]acetyl} pyrrolidine-2-carboxamide]
880 | > 100000 | 43 | CCn1ncc(N(C)CC(=O)N2C[C@H](F)C[C@H]2C(=O)N[C@@H](c2ccccc2)c2ccc(C3CC3)c(F)c2)n1 [Compound 474, (2S,4R)-N-[(S)-(4-cyclopropyl-3-fluorophenyl)(phenyl)methyl]-1-{2-[(2-ethyl-2H-1,2,3-triazol-4-yl)(methyl)amino]acetyl}-4-fluoropyrrolidine-2-carboxamide]
1290 | > 100000 | 77 | CN(CC(=O)N1C[C@H](F)C[C@H]1C(=O)N[C@@H](c1ccccc1)c1ccc(C2CC2)c(F)c1)c1cnccn1 [Compound 475, (2S,4R)-N-[(S)-(4-cyclopropyl-3-fluorophenyl)(phenyl)methyl]-4-fluoro-1-{2-[methyl(pyrazin-2-yl)amino]acetyl} pyrrolidine-2-carboxamide]
630 | > 100000 | 20 | Cc1ccc2c(CC(=O)N3C[C@H](F)C[C@H]3C(=O)N[C@@H](c3ccccc3)c3ccc(C4CC4)c(F)c3)cccc2n1 [Compound 477, (2S,4R)-N-[(S)-(4-cyclopropyl-3-fluorophenyl)(phenyl)methyl]-4-fluoro-1-[2-(2-methylquinolin-5-yl)acetyl]pyrrolidine-2-carboxamide]
7770 | > 100000 | 247 | O=C(N[C@@H](c1ccccc1)c1ccc(C2CC2)c(F)c1)[C@@H]1C[C@@H](F)CN1C(=O)Cn1cnnc1 [Compound 481, (2S,4R)-N-[(S)-(4-cyclopropyl-3-fluorophenyl)(phenyl)methyl]-4-fluoro-1-[2-(4H-1,2,4-triazol-4-yl)acetyl]pyrrolidine-2-carboxamide]
1410 | > 100000 | 68 | O=C(N[C@@H](c1ccccc1)c1ccc(C2CC2)c(F)c1)[C@@H]1C[C@@H](F)CN1C(=O)Cc1cccn2c(=O)[nH]nc12 [Compound 482, (2S,4R)-N-[(S)-(4-cyclopropyl-3-fluorophenyl)(phenyl)methyl]-4-fluoro-1-(2-{3-oxo-2H,3H-[1,2,4]triazolo[4,3-a]pyridin-8-yl}acetyl) pyrrolidine-2-carboxamide]
820 | > 100000 | 66 | CN(C)c1cn(CC(=O)N2C[C@H](F)C[C@H]2C(=O)N[C@@H](c2ccccc2)c2ccc(C3CC3)c(F)c2)nn1 [Compound 484, (2S,4R)-N-[(S)-(4-cyclopropyl-3-fluorophenyl)(phenyl)methyl]-1-{2-[4-(dimethylamino)-1H-1,2,3-triazol-1-yl]acetyl}-4-fluoropyrrolidine-2-carboxamide]
3720 | > 100000 | 210 | CC(C)(C)OC(=O)NCc1nnc(CC(=O)N2C[C@H](F)C[C@H]2C(=O)N[C@@H](c2ccccc2)c2ccc(C3CC3)c(F)c2)o1 [Compound 485, tert-butyl N-[(5-{2-[(2S,4R)-2-{[(S)-(4-cyclopropyl-3-fluorophenyl)(phenyl)methyl]carbamoyl}-4-fluoropyrrolidin-1-yl]-2-oxoethyl}-1,3,4-oxadiazol-2-yl)methyl]carbamate]
2090 | > 100000 | 68 | O=C(N[C@@H](c1ccccc1)c1ccc(C2CC2)c(F)c1)[C@@H]1C[C@@H](F)CN1C(=O)CNC(=O)N1CCN(CC(F)(F)F)CC1 [Compound 487, N-{2-[(2S,4R)-2-{[(S)-(4-cyclopropyl-3-fluorophenyl)(phenyl)methyl]carbamoyl}-4-fluoropyrrolidin-1-yl]-2-oxoethyl}-4-(2,2,2-trifluoroethyl) piperazine-1-carboxamide]
2870 | > 100000 | 52 | O=C(N[C@@H](c1ccccc1)c1ccc(C2CC2)c(F)c1)[C@@H]1C[C@@H](F)CN1C(=O)CNC(=O)N1CCN(CC2CC2)CC1 [Compound 490, N-{2-[(2S,4R)-2-{[(S)-(4-cyclopropyl-3-fluorophenyl)(phenyl)methyl]carbamoyl}-4-fluoropyrrolidin-1-yl]-2-oxoethyl}-4-(cyclopropylmethyl) piperazine-1-carboxamide]
> 30000 | > 100000 | 138 | O=C(N[C@@H](c1ccccc1)c1ccc(C2CC2)c(F)c1)[C@@H]1C[C@@H](F)CN1C(=O)Cc1noc(=O)[nH]1 [Compound 492, (2S,4R)-N-[(S)-(4-cyclopropyl-3-fluorophenyl)(phenyl)methyl]-4-fluoro-1-[2-(5-oxo-4,5-dihydro-1,2,4-oxadiazol-3-yl)acetyl]pyrrolidine-2-carboxamide]
